Patent US9056888B2 (priority 2011, dated 2015)
Entries after “also recorded” stand apart in the source; their conditions may differ. Like-named read-outs stand apart in the source and are kept apart here.

Legend:
[1] = Cytotoxicity, MTT assay (Table 1); format: cell-based; conditions: mean
Procedure: The cellular toxicity of the different compounds was evaluated using the MTT assays. […] The selectivity index (SI) was defined as the ratio CC50: IC50 (Table 1).

[2] = Cytotoxicity, MTT assay (Table 2); format: cell-based; conditions: for CC50: MTT assay, mean
Procedure: The cellular toxicity of the different compounds was evaluated using the MTT assays. […] The selectivity index (SI) was defined as the CC50 to IC50 ratio.

CA-SP1 cleavage = assay: HIV-1 maturation inhibition assay, p25 (CA-SP1) to p24 (CA) processing in virion lysate; format: cell-based; conditions: Western blot (FIG. 2)
Procedure: Two days after transfection, virus-containing supernatants were concentrated by ultracentrifugation through a layer of 20% sucrose at 25 000 rpm for 2 h30. Viral pellets were then resuspended in RIPA lysis buffer [10 mM Tris-HCl (pH 7.4), 1 mM EDTA, 100 mM NaCl, 1% Triton X-100, 0.1% SDS, 0.25% sodium deoxycholate, 0.2% phenylmethylsulfonyl fluoride (PMSF)]. Viral proteins were loaded on a 12.5% SDS-PAGE gel.
To further elucidate the mechanism of action, viral samples used for infection assays were subjected to biochemical characterization (FIG. 2).

HIV-1 virion morphology = assay: Thin-section electron microscopy of virions from pNL4-3 transfected 293T cells; format: cell-based; conditions: pNL4-3, 5 μg/ml (FIG. 3)
Procedure: Two days after transfection, 293T cells were processed for thin-layer electron microscopy as follows: cells were fixed in situ with 2.5% glutaraldehyde in cacodylate buffer (pH 7.4) for 60 min at 4° C. Cells were then post-fixed with 2% osmium tetroxide, washed in cacodylate buffer containing 0.5% tanic acid, and embedded in epon (Embed-812, Electron Microscopy Sciences Inc.). Sections were counterstained with uranyl acetate and lead citrate and examined with an Hitachi H7100 transmission electron microscope.
In the absence of compounds, cells transfected with pNL4-3 produced virus particles with the classical mature morphology characterized by the presence of condensed, conical cores (FIG. 3A).

Pr55Gag = biological target: T1, Pr55Gag (Human immunodeficiency virus type 1 group M subtype B, UniProt P03348); assay: Chemical cross-linking of intracellular Pr55Gag with BS3; format: cell-based, HIV-1; conditions: Sf9 cells, 10 μg/ml
T1 construct: AcMNPV-Pr55Gag expressed the full-length wild type (WT) Gag polyprotein (Pr55Gag); expressed in transfected cells; host or cells: Spodoptera frugiperda Sf9 cells infected with recombinant baculovirus AcMNPV-Pr55Gag
Procedure: Aliquots of recombinant baculovirus-infected Sf9 cells (5×10^5 cells) untreated or treated with 16 at 10 ug/ml for 24 h at 24 h pi were centrifuged at low speed, resuspended in 200 μl of PBS containing the cross-linker bis(sulfosuccinimidyl)suberate (BS3; Pierce Biotechnology, Rockford, Ill.) at increasing molarities, ranging from 0 to 50 mM [12], and incubated in this buffer for 30 min at room temperature (RT). Cell samples were then centrifuged, resuspended and lysed in 200 μl 0.015 M NaCl, 0.5 mM phosphate buffer pH 7.3 containing BS3 at the same molarites as in the original mixtures, and further incubated for 30 min at RT. Cell lysates were mixed with 30 μl 6 times concentrated (6×) SDS-sample buffer without β-mercaptoethanol, heated to 100° C. for 1 min, and Gag proteins analyzed by SDS-PAGE and immunoblotting. […]
To further analyse the mechanism of the effect of 16 on Gag polyprotein assembly, untreated and 16-treated (10 μg/ml), Pr55Gag-expressing Sf9 cells were incubated with increasing concentrations of the chemical cross-linker BS3 at 48 h pi for 30 min at room temperature, then lysed in hypotonic medium in the presence of BS3 used in the same range of concentrations. The oligomeric status of the Gag proteins was assessed by SDS-PAGE and Western blot analysis, using anti-Gag antibody, peroxidase-labeled complementary antibody and enhanced chemiluminescence (ECL). […]

[3] = test system: HIV-1 VLP assembly (Pr55Gag); assay: microbe, parasite or virus in culture; format: cell-based; conditions: for SI (ratio CC50:IC50): Table 2
Procedure: Aliquots of Sf9 cells (10^6) were infected with two recombinant baculoviruses at equal multiplicity of infection (MOI of 10 PFU/cell, each). One expressed the HIV-1 Gag precursor (AcMNPV-Pr55Gag or control, p6-deleted AcMNPV-GagΔp6), the other the control Vpr protein (AcMNPV-Vpr) or the LucVpr fusion (AcMNPV-LucVpr). […] To avoid any interference with a possible effect of DMSO, DMSO was kept constant in volume in the different samples. […] Cells were harvested at 48 h pi, and extracellular VLP released in the culture medium were quantitated using luciferase assay. Membrane-enveloped VLP were pelleted and resuspended in lysis KDT buffer (KDT: 0.1M potassium phosphate buffer, pH 7.8, 1 mM DTT, containing 0.2% Triton X100) for 30 min at 37° C. with vortexing every 10 min. Luciferase activity associated with VLP was measured as previously described [10], using a Lumat LB-9501 luminometer (Berthold Technologies, Bad Wildbad, Germany). […] To compensate for eventual negative effects of drugs on LucVpr expression, the luciferase activity was measured in the corresponding cell lysates, obtained after lysis of the pelleted cells with KDT buffer. The results were expressed as relative light units (RLU) per μg protein. The values of the ratio of VLP-associated to intracellular luciferase activity were plotted versus the inhibitor concentration.
Cell culture medium was then harvested at 48 h pi, subjected to the 2-step ultracentrifugation analysis, and each gradient fraction probed for Gag polyprotein and luciferase activity, as above. […] The gradient fractions corresponding to the peak of luciferase activity were pooled, and the VLP contained in these fractions were pelleted, lysed and assayed for luciferase content.
Drug treatment was maintained for a further 24 h, and VLP released in the cell culture medium were pelleted through a sucrose cushion [8]. The amounts of extracellular VLP recovered in the 48 h-pellets obtained in the presence of the different inhibitors were determined using the luciferase assays. After normalization to the luciferase activity determined in the corresponding cell lysates, the values of the ratio of VLP-incorporated to cell-associated luciferase activity were plotted versus the drug concentrations.

HIV-1 VLP = conditions: read-out: IC50 previously determined using immuno-radiochemical assay of VLP; reference [8]; cited from earlier work
VLP assembly and budding [4] = conditions: 10 μg/ml (17 μM), previous study [8]; cited from earlier work
HIV-1 = assay: Infection inhibition assay, MAGIC-5B indicator cells; conditions: Table 1
Procedure: The evaluation of HIV-1 inhibition was carried out using MAGIC-5B indicator cells, which stably express the β-galactosidase reporter gene cloned downstream of the HIV-1 LTR promoter. Cells were plated at 8×10^4 cells per well, in 24-well plates and exposed to HIV-1 (x ng p24). Forty-eight hours post-infection, viral infectivity was monitored by quantification of o-nitrophenyl β-D-galactopyranoside hydrolysis from cell lysates (kit). β-galactosidase activity was normalized according to total protein content in the cell lysate. Control wells containing virus and cells only (no drug) and cells only (no virus or drug) were also prepared.

VLP assembly and budding [5] = assay: Electron microscopy of AcMNPV-Gag-infected Sf9 cells; format: cell-based, HIV-1; conditions: 5 and 10 μg/ml for 24 h at 24 h pi
Procedure: Baculovirus-infected Sf9 cells were harvested at 48 h pi, pelleted, fixed with 2.5% glutaraldehyde in 0.1 M phosphate buffer, pH 7.5, post-fixed with osmium tetroxide (2% in H2O) and treated with 0.5% tannic acid solution in H2O. The specimens were dehydrated and embedded in Epon (Epon-812; Fulham, Latham, N.Y.). Ultrathin sections were stained with 2.6% alkaline lead citrate and 0.5% uranyl acetate in 50% ethanol, and post-stained with 0.5% uranyl acetate solution in H2O [8,9]. Grids were examined under a Jeol JEM-1400 electron microscope, equipped with an ORIUS™ digitalized camera (Gatan France, 78113-Grandchamp). For statistical EM analyses, a minimum of 30 grid squares containing 10 to 20 cell sections each were examined for counting VLP budding at the cell surface, or budding in intracellular vesicular compartment.
By contrast, control, untreated AcMNPV-Gag-infected Sf9 cells were decorated with VLP budding in abundance from the plasma membrane.

[6] = Human immunodeficiency virus 1, read-out: IC50, inhibition of HIV-1 VLP assembly, Sf9 cells, mean
[7] = Human immunodeficiency virus 1, read-out: IC50, inhibition of HIV-1 VLP assembly, Sf9 cells, mean ± SEM, n = 4

Compound | CC50 [1] [µM] | CC50 [2] [µM] | inhibition of conversion of uncleaved p25 (CA-SP1) to mature p24 (CA) (CA-SP1 cleavage) | virus morphology / virion maturation by EM (HIV-1 virion morphology) | SI (CC50/IC50 ratio) (HIV-1) | SI (ratio CC50:IC50) [3] | further results
C=C(C)[C@@H]1CC[C@]2(C(=O)NCCN)CC[C@]3(C)[C@H](CC[C@@H]4[C@@]5(C)CC[C@H](OC(=O)CC(C)(C)C(=O)O)C(C)(C)[C@@H]5CC[C@]43C)[C@@H]12 [Compound 16, 4-({28-[(2-aminoethyl)amino]-28-oxolup-20,29-en-3β-yl}oxy)-2,2-dimethyl-4-oxobutanoic acid] | 33.9 | 120 | inhibit the CA-SP1 cleavage; also recorded: accumulation of p25 is observed | lacked conical cores | – | – | Gag oligomerization status after BS3 cross-linking (Pr55Gag): favored the occurrence and/or the stability and persistence of Gag trimers
C=C(C)[C@@H]1CC[C@]2(C(=O)NCC(=O)O)CC[C@]3(C)C(CCC4[C@@]5(C)CC[C@H](OC(=O)CC(C)(C)C(=O)O)C(C)(C)C5CC[C@]43C)C12 (stereo partly drawn) [Compound 12, N-[3β-(3-carboxy-3-methylbutanoyloxy)-lup-20,29-en-28-oyl]-glycine] | – | – | – | – | – | – | IC50 ([3]; Sf9 cells, mean, read-out: IC50, inhibition of HIV-1 VLP assembly): 5.9 µM
C=C(C)[C@@H]1CC[C@]2(C(=O)NC(CCCCN)C(=O)O)CC[C@]3(C)[C@H](CC[C@@H]4[C@@]5(C)CC[C@H](OC(=O)CC(C)(C)C(=O)O)C(C)(C)[C@@H]5CC[C@]43C)[C@@H]12 (stereo partly drawn) [Compound 17, N^2-[3β-(3-carboxy-3-methylbutanoyloxy)lup-20,29-en-28-oyl]-L-lysine] | – | – | – | – | – | – | VLP / particle assembly inhibition (in words) ([3]; FIG. 6): resembled that of 12
C=C(C)[C@@H]1CC[C@]2(C(=O)O)CC[C@]3(C)[C@H](CC[C@@H]4[C@@]5(C)CC[C@H](OC(=O)CC(C)(C)C(=O)O)C(C)(C)[C@@H]5CC[C@]43C)[C@@H]12 [DSB, 3-O-(3′,3′-dimethylsuccinyl)-betulinic acid, reference compound] | – | – | – | lacked conical cores | – | – | inhibition of conversion of uncleaved p25 (CA-SP1) to mature p24 (CA) (CA-SP1 cleavage; listed as 2): inhibit the CA-SP1 cleavage; also recorded: accumulation of p25 is observed; IC50 ([3]; Human immunodeficiency virus 1, read-out: IC50, VLP formation): 3.8 to 4.2 µM; IC50 ([3]; Human immunodeficiency virus 1, read-out: IC50, inhibition of HIV-1 VLP assembly): 3 ± 1 µg/mL; IC50 ([3]; Human immunodeficiency virus 1, read-out: concentration for 50% inhibition of VLP formation): 2.2 to 2.5 µg/mL; IC50 (HIV-1 VLP): 8 to 10 µM; effect on VLP budding and egress (VLP assembly and budding [4]): totally abolished VLP budding and egress
C=C(C)[C@@H]1CC[C@]2(C(=O)NC(CCCCNC(=O)OC(C)(C)C)C(=O)O)CC[C@]3(C)[C@H](CC[C@@H]4[C@@]5(C)CC[C@H](OC(=O)CC(C)(C)C(=O)O)C(C)(C)[C@@H]5CC[C@]43C)[C@@H]12 (stereo partly drawn) [Compound 15, N^2—[O^3-(3-carboxy-3-methylbutyryl)betulinyl]-N^6-Boc-L-lysine] | 33 | 24.7 | inhibit the CA-SP1 cleavage; also recorded: accumulation of p25 is observed | lacked conical cores | 199.41 | 13.0 | IC50 [3, 6]: 1.9 µM; IC50 [3, 7]: 1 to 2 µg/mL; IC50, inhibition of HIV-1 VLP assembly ([3]; Sf9 cells, mean ± SEM, n = 4): 1.6 ± 0.5 µg/mL; effect on VLP assembly and budding by EM (VLP assembly and budding [5]): net inhibitory effect on VLP assembly and budding
C=C(C)[C@@H]1CC[C@]2(C(=O)NCC(=O)O)CC[C@]3(C)[C@H](CC[C@@H]4[C@@]5(C)CC[C@H](OC(=O)CC(C)(C)C(=O)O)C(C)(C)[C@@H]5CC[C@]43C)[C@@H]12 [Compound 12, N-[3β-(3-carboxy-3-methylbutanoyloxy)-lup-20,29-en-28-oyl]-glycine] | 49.5 | 31.1 | inhibit the CA-SP1 cleavage; also recorded: accumulation of p25 is observed | lacked conical cores | 309.37 | 5.3 | IC50 [3, 6]: 5.9 µM; IC50 [3, 7]: 3.8 ± 1.6 µg/mL; effect on VLP assembly and budding by EM (VLP assembly and budding [5]): net inhibitory effect on VLP assembly and budding
C=C(C)[C@@H]1CC[C@]2(C(=O)O)CC[C@]3(C)[C@H](CC[C@@H]4[C@@]5(C)CC[C@H](O)C(C)(C)[C@@H]5CC[C@]43C)[C@@H]12 [BA, betulinic acid, reference compound] | 4.52 | 43.8 | – | – | 0.85 | 1.1 | –
C=C(C)[C@@H]1CC[C@]2(C(=O)NCCN)CC[C@]3(C)C(CCC4[C@@]5(C)CC[C@H](OC(=O)CC(C)(C)C(=O)O)C(C)(C)C5CC[C@]43C)C12 (stereo partly drawn) [Compound 16, 4-({28-[(2-aminoethyl)amino]-28-oxolup-20,29-en-3β-yl}oxy)-2,2-dimethyl-4-oxobutanoic acid] | – | – | – | – | – | – | level of cytotoxicity compared to the other drugs [2]: lowest level of cytotoxicity
